# Measured values as given in patent US12696902B2, “Pesticidal pyrazole and triazole derivatives” (priority 2019, dated 2026).
# Experiments:
# Format in all cases: in vivo
# [1] = test system: Diamond Back Moth (Plutella xylostella); assay: Action on diamond back moth, cabbage leaf dip; conditions: foliar, 3rd instar larvae on dipped cabbage leaves, 72 hours after treatment, read-out: mortality in comparison with untreated controls
# Experimental: The active compound is dissolved at the desired concentration in a mixture of 1:1 (v/v) distilled water:acetone. Surfactant (Kinetic® HV) is added at a rate of 0.01% (v/v). The test solution is prepared at the day of use.
# Leaves of cabbage were dipped in test solution and air-dried. Treated leaves were placed in petri dishes lined with moist filter paper and inoculated with ten 3rd instar larvae. Mortality was recorded 72 hours after treatment. Feeding damages were also recorded using a scale of 0-100%.
# [2] = test system: Boll Weevil (Anthonomus grandis); assay: Action on boll weevil, egg and larval mortality on insect diet in microtiter plates; conditions: 120 h, A. grandis eggs on insect diet, egg and larval mortality after 5 days, read-out: mortality in comparison with untreated controls
# Experimental: For evaluating control of boll weevil (Anthonomus grandis) the test unit consisted of 96-well-microtiter plates containing an insect diet and 5-10 A. grandis eggs.
# The compounds were formulated using a solution containing 75% (v/v) water and 25% (v/v) DMSO. Different concentrations of formulated compounds were sprayed onto the insect diet at 5 μl, using a custom built micro atomizer, at two replications.
# After application, microtiter plates were incubated at about 25+1° C. and about 75+5% relative humidity for 5 days. Egg and larval mortality were then visually assessed.
# [3] = test system: Southern Armyworm (Spodoptera eridania), 2nd Instar Larvae; assay: Action on southern armyworm 2nd instar larvae on sprayed lima bean plants; conditions: 96 h, 4 days after treatment, read-out: mortality in comparison with untreated controls
# Experimental: The active compounds were formulated by a Tecan liquid handler in 100% cyclohexanone as a 10,000 ppm solution supplied in tubes. The 10,000 ppm solution was serially diluted in 100% cyclohexanone to make interim solutions. These served as stock solutions for which final dilutions were made by the Tecan in 50% acetone:50% water (v/v) into 10 or 20 ml glass vials. A nonionic surfactant (Kinetic®) was included in the solution at a volume of 0.01% (v/v). The vials were then inserted into an automated electrostatic sprayer equipped with an atomizing nozzle for application to plants/insects.
# Lima bean plants (variety Sieva) were grown 2 plants to a pot and selected for treatment at the 1st true leaf stage. Test solutions were sprayed onto the foliage by an automated electrostatic plant sprayer equipped with an atomizing spray nozzle. The plants were dried in the sprayer fume hood and then removed from the sprayer. Each pot was placed into perforated plastic bags with a zip closure. About 10 to 11 armyworm larvae were placed into the bag and the bags zipped closed. Test plants were maintained in a growth room at about 25° C. and about 20-40% relative humidity for 4 days, avoiding direct exposure to fluorescent light (24 hour photoperiod) to prevent trapping of heat inside the bags. Mortality and reduced feeding were assessed 4 days after treatment, compared to untreated control plants.
# [4] = test system: Tobacco Budworm (Heliothis virescens); assay: Action on tobacco budworm, egg and larval mortality on insect diet in microtiter plates; conditions: 120 h, H. virescens eggs on insect diet, egg and larval mortality after 5 days, read-out: mortality in comparison with untreated controls
# Experimental: For evaluating control of tobacco budworm (Heliothis virescens) the test unit consisted of 96-well-microtiter plates containing an insect diet and 15-25 H. virescens eggs.
# The compounds were formulated using a solution containing 75% v/v water and 25% v/v DMSO. Different concentrations of formulated compounds were sprayed onto the insect diet at 10 μl, using a custom built micro atomizer, at two replications.
# After application, microtiter plates were incubated at about 28+1° C. and about 80+5% relative humidity for 5 days. Egg and larval mortality were then visually assessed.
# [5] = test system: Yellow Fever Mosquito (Aedes aegypti); assay: whole plant or invertebrate; conditions: 48 h, freshly hatched A. aegypti larvae, larval mortality visually assessed after 2 days, read-out: mortality in comparison with untreated controls
# Experimental: For evaluating control of yellow fever mosquito (Aedes aegypti) the test unit consisted of 96-well-microtiter plates containing 200 μl of tap water per well and 5-15 freshly hatched A. aegypti larvae.
# The active compounds or mixtures were formulated using a solution containing 75% (v/v) water and 25% (v/v) DMSO. Different concentrations of formulated compounds or mixtures were sprayed onto the insect diet at 2.5 μl, using a custom built micro atomizer, at two replications. For experimental mixtures in these tests identical volumes of both mixing partners at the desired concentrations respectively, were mixed together.
# After application, microtiter plates were incubated at 28±1° C., 80±15% RH for 2 days. Larval mortality was then visually assessed.
# [6] = test system: Orchid Thrips (Dichromothrips corbetti); assay: Action on orchid thrips, floral-immersion technique; conditions: adult thrips, 72 hours after treatment, read-out: mortality in comparison with untreated controls
# Experimental: Dichromothrips corbetti adults used for bioassay were obtained from a colony maintained continuously under laboratory conditions. For testing purposes, the test compound is diluted in a 1:1 mixture of acetone:water (vol:vol), plus Kinetic® HV at a rate of 0.01% v/v.
# Thrips potency of each compound was evaluated by using a floral-immersion technique. All petals of individual, intact orchid flowers were dipped into treatment solution and allowed to drying Petri dishes. Treated petals were placed into individual re-sealable plastic along with about 20 adult thrips. All test arenas were held under continuous light and a temperature of about 28° C. for duration of the assay. After 3 days, the numbers of live thrips were counted on each petal. The percent mortality was recorded 72 hours after treatment.
Compound,mortality at 500 ppm [1],mortality at 800 ppm [2],mortality at 300 ppm [3],mortality at 800 ppm [4],mortality at 800 ppm [5],mortality at 500 ppm [6]
"Cc1cc(/C=N/N2C(=O)CS/C2=N\c2ccccc2C(C)C)ccc1-n1cc(NC(=O)c2ccc(OC(F)(F)F)cc2)c(C)n1 [Compound C-11, N-[1-[4-[(E)-[(2Z)-2-(2-isopropylphenyl)imino-4-oxo-thiazolidin-3-yl]iminomethyl]-2-methyl-phenyl]-3-methyl-pyrazol-4-yl]-4-(trifluoromethoxy)benzamide]",≥ 75%,≥ 75%,≥ 75%,≥ 75%,≥ 50%,
"Cc1nn(-c2ccc(/C=N/NC(=S)Nc3ccccc3C(C)C)cc2)cc1NC(=O)c1ccc2c(c1)OC(F)(F)O2 [Compound C-16, 2,2-difluoro-N-[1-[4-[(E)-[(2-isopropylphenyl)carbamothioylhydrazono]methyl]phenyl]-3-methyl-pyrazol-4-yl]-1,3-benzodioxole-5-carboxamide]",≥ 75%,≥ 75%,≥ 75%,≥ 75%,≥ 50%,≥ 75%
"Cc1nn(-c2ccc(/C=N/N=C3\SCC(=O)N3c3ccccc3C(C)C)cc2)cc1NC(=O)c1ccc2c(c1)OC(F)(F)O2 [Compound C-17, 2,2-difluoro-N-[1-[4-[(E)-[(Z)-[3-(2-isopropylphenyl)-4-oxo-thiazolidin-2-ylidene]hydrazono]methyl]phenyl]-3-methyl-pyrazol-4-yl]-1,3-benzodioxole-5-carboxamide]",≥ 75%,≥ 75%,≥ 75%,≥ 75%,≥ 50%,
"Cc1nn(-c2ccc(/C=N/NC(=S)Nc3ccccc3C(C)C)cc2)cc1C(=N)Nc1ccc(OC(F)(F)F)cc1 [Compound C-52, 1-(2-isopropylphenyl)-3-[(E)-[4-[3-methyl-4-[N-[4-(trifluoromethoxy)phenyl]carbamimidoyl]pyrazol-1-yl]phenyl]methyleneamino] thiourea]",≥ 75%,≥ 75%,≥ 75%,≥ 75%,≥ 50%,≥ 75%
"Cc1nn(-c2ccc(/C=N/N3C(=O)CS/C3=N\c3ccccc3C(C)C)cc2)cc1C(=N)Nc1ccc(OC(F)(F)F)cc1 [Compound C-53, 1-[4-[(E)-[(2Z)-2-(2-isopropylphenyl)imino-4-oxo-thiazolidin-3-yl]iminomethyl]phenyl]-3-methyl-N-[4-(trifluoromethoxy)phenyl]pyrazole-4-carboxamidine]",≥ 75%,≥ 75%,≥ 75%,≥ 75%,≥ 50%,
